# Measured values from publication PMC6733504, “Effects of flavoring compounds used in electronic cigarette refill liquids on endothelial and vascular function” (PLoS ONE, 2019).
# Legend:
# [1] = test system: Porcine aortic endothelial cells (endogenous NO/cGMP pathway); test: A23187 (Ca2+ ionophore)-induced endothelial cGMP formation; format: cell-based
# Method: Porcine aortic endothelial cells were isolated as described and cultured at 37°C, 5% CO2 for up to 3 passages in Dulbecco´s modified Eagle´s medium, containing 10% heat-inactivated fetal calf serum (FCS), 100 U/ml penicillin, 0.1 mg/ml streptomycin, and 1.25 μg/ml amphotericin B. Prior to experiments, cells were subcultured into 24-well plates (determination of cGMP formation) or 6-well plates (determination of L-citrulline formation).
# Accumulation of intracellular 3',5'-cyclic GMP (cGMP) was determined as previously described. Briefly, endothelial cells were washed and preincubated with the compounds to be tested for 15 minutes at 37°C in 50 mM Tris buffer, pH 7.4, containing 100 mM NaCl, 5 mM KCl, 1 mM MgCl2, 2.5 mM CaCl2, 1 mM 3-isobutyl-1-methylxanthine, and 1 μM indomethacin. Reactions were started by addition of the Ca^2+ ionophore A 23187 (final concentration 1 μM) or the NO donor DEA/NO (final concentration 1 μM) and terminated after 4 minutes by removal of the incubation medium and addition of 0.01 M HCl. Within 1 h, intracellular cGMP was completely released into the supernatant and measured by radioimmunoassay.
# endothelial cells = test: LDH release (membrane integrity); settings: 1 mM, 60 minutes; maximum = 1% Triton
# Method: To test for membrane integrity, endothelial cells were assayed for release of lactate dehydrogenase (LDH) into the culture medium. Subsequent to incubation with flavoring compounds (1 mM each) for 1 hour, 20-μl aliquots of the culture media were mixed with 200 μl of reagent buffer (1 mM pyruvate and 0.1 mM NAD^+ in PBS). The decrease in light absorbance at 340 nm was monitored using a diode array spectrophotometer (Hewlett Packard 8452A). Maximum LDH release was determined by treating the cells with 1% Triton X-100.
SMILES,Concentration inhibiting Ca2+-stimulated endothelial cGMP accumulation [1] [mM],"A23187-induced cGMP formation ([1]; flavoring 1 mM, 15 min preincubation, 1 μM A23187 for 4 min (Fig 1A))",LDH release (% of maximum) (endothelial cells)
"O=C/C=C/c1ccccc1 [Cinnamaldehyde, (2E)-3-Phenylprop-2-enal]",≥ 0.3,about 35 % of controls,–
"C=CCc1ccc(O)c(OC)c1 [Eugenol, 2-Methoxy-4-(prop-2-en-1-yl)phenol]",–,–,0.4±0.23 % of maximum
